The target of experiment [1] is p70S6K (T412E mutant) (Homo sapiens (Human), UniProt P23443, T412E). Kind of experiment: p70S6K enzyme assay. Format: biochemical. The conditions noted are these: 24 μM ATP, 90 min at 25° C., Caliper mobility shift. How it is done:
p70S6K inhibitor compounds were diluted and plated in 96 well plates. A reaction mixture including the following components were then added to the compound plate to initiate the enzyme reaction: p70S6K (3 nM, T412E mutant, Millipore) was mixed with 24 μM ATP in an assay buffer containing 100 mM Hepes (pH 7.5), 5 mM MgCl2, 1 mM DTT, 0.015% Brij and 1 μM of the substrate peptide FITC-AHA-[…]-OH (derived from the S6 ribosomal protein sequence, FITC=fluorescein isothiocyanate, AHA=6-aminohexanoic acid). The reaction was incubated for 90 min at 25° C., before the addition of 10 mM EDTA to stop the reaction. The proportion of substrate and product (phosphorylated) peptide was analyzed on a Caliper Life Sciences Lab Chip 3000, using a pressure of −1.4 psi, and upstream and downstream voltages of −3000 and −700, respectively. Product peaks were resolved before substrate peaks on the resulting chromatograms. To assess the inhibitory potential of the compounds, IC50 values were determined, as shown above.

Experiment [2] addresses His-AKT (Full Length) (Homo sapiens (Human), UniProt P31749). Kind of experiment: AKT/PKB kinase assay. Format: biochemical. The conditions noted are these: 160 μM ATP, 90 min at 25° C., Caliper mobility shift. How it is done: In order to measure AKT inhibition in the Caliper Life Sciences LC3000, a TTP Mosquito liquid handling instrument was used to place 125 nl of the appropriate concentration of inhibitor in 100% DMSO (for a dose response curve calculation) into each well of a 384-well plate. To this reaction, the following components were added to a final volume of 12.5 μl: • 0.1 ng/μl His-AKT (Full Length) (Invitrogen, Part # P2999, Lot #641228C); • 160 μM ATP (Fluka, 02055); • 1 mM DTT (Sigma, D0632); • 1 mM MgCl2 (Sigma, M1028); • 1 μM substrate peptide (sequence FITC-AHA-[…]-NH2), synthesized by • Tufts Peptide Synthesis service; • 100 mM HEPES pH 7.5 (Calbiochem, 391338); and • 0.015% Brij-35 (Sigma, B4184).
The reaction was incubated for 90 min at 25° C., and then stopped by the addition of 70 μl of Stop buffer (100 mM HEPES pH 7.5, 0.015% Brij-35, 10 mM EDTA (Sigma, E7889)). The plate was read on a Caliper LC 3000 in an Off-Chip mobility shift assay format, using the following parameters for a 12-sipper chip: screening pressure −2.3 psi, upstream voltage −500, and downstream voltage −3000. These conditions cause unphosphorylated substrate and phosphorylated product peptide to resolve as separate peaks allowing direct measurement of percentage of conversion of substrate to product. The percent conversion was plotted against concentration of inhibitor to produce a sigmoidal dose response curve, from which an IC50 was calculated.

p70S6K (T412E mutant), sequence (P23443 whole entry T412E): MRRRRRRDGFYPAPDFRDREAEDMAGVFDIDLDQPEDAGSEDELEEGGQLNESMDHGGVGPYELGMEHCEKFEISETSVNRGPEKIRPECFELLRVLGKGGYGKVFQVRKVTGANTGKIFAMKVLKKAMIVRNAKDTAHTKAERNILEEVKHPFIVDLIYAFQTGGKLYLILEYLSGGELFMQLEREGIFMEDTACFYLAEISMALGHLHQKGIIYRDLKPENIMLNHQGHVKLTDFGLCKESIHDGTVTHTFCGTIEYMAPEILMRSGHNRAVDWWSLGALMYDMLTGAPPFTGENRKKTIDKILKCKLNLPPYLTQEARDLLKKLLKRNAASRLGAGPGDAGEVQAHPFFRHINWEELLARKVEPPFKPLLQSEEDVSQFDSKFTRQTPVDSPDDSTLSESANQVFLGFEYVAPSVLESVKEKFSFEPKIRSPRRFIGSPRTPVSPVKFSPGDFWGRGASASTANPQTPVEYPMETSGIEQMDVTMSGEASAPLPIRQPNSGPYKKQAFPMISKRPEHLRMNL
His-AKT (Full Length), sequence (P31749 whole entry): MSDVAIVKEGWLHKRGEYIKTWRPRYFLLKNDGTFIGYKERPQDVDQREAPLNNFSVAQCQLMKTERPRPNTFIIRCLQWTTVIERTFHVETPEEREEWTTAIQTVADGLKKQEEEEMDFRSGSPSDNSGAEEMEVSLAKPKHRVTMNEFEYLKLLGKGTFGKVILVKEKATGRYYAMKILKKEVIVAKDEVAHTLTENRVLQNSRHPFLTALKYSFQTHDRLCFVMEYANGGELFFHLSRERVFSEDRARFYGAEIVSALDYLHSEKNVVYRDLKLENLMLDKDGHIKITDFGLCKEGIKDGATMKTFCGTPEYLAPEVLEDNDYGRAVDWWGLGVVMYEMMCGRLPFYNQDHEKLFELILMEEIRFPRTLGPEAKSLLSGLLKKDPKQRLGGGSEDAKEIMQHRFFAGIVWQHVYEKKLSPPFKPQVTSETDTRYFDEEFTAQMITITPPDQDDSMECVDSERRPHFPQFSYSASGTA

A word on the IC50: it is the concentration at which inhibition is half-maximal. Turning to `NC(=O)c1cccc2c(NCc3cccc(C(F)(F)F)c3)nnnc12` [Compound 1, 4-(3-Trifluoromethyl-benzylamino)-benzo[d][1,2,3]triazine-8-carboxamide], the half-maximal inhibitory concentration (IC50) was 101 to 500 nM in experiment [1] and above 1000 nM in experiment [2].

On to `NC(=O)c1cccc2c(NCc3ccc(Cl)c(Cl)c3)nnnc12` [Compound 2, 4-((3,4-dichlorobenzyl)amino)benzo[d][1,2,3]triazine-8-carboxamide], for which the IC50 was below 25 nM in experiment [1] and above 1000 nM in experiment [2]. In the same order, the values of `NC(=O)c1cccc2c(NCc3cccnc3)nnnc12` [Compound 3, 4-((pyridin-3-ylmethyl)amino)benzo[d][1,2,3]triazine-8-carboxamide] are above 1000 nM and above 1000 nM. In the same order, the values of `NC(=O)c1cccc2c(NCc3ccc(Cl)c(C(F)(F)F)c3)nnnc12` [Compound 4, 4-((4-chloro-3-(trifluoromethyl)benzyl)amino)benzo[d][1,2,3]triazine-8-carboxamide] are below 25 nM and above 1000 nM.

For `NC(=O)c1cccc2c(NCc3ccccn3)nnnc12` [Compound 5, 4-((pyridin-2-ylmethyl)amino)benzo[d][1,2,3]triazine-8-carboxamide], the IC50 in experiment [1] and in experiment [2] was above 1000 nM throughout. With `NC(=O)c1cccc2c(NCc3ccccc3)nnnc12` [Compound 6, 4-(benzylamino)benzo[d][1,2,3]triazine-8-carboxamide], the IC50 is 501 to 1000 nM in experiment [1] and above 1000 nM in experiment [2].

As for `NC(=O)c1cccc2c(NCc3ccc(C(F)(F)F)cn3)nnnc12` [Compound 7, 4-(((5-(trifluoromethyl)pyridin-2-yl)methyl)amino)benzo[d][1,2,3]triazine-8-carboxamide], the IC50 in experiment [1] and in experiment [2] was above 1000 nM in each case. On to `NC(=O)c1cccc2c(NCc3ccc(C(F)(F)F)cc3)nnnc12` [Compound 8, 4-((4-(trifluoromethyl)benzyl)amino)benzo[d][1,2,3]triazine-8-carboxamide], for which the IC50 in experiment [1] is 25 to 100 nM; in experiment [2] it was above 1000 nM. In the case of `NC(=O)c1cccc2c(NCc3cccc(F)c3)nnnc12` [Compound 9, 4-((3-fluorobenzyl)amino)benzo[d][1,2,3]triazine-8-carboxamide], the IC50 in experiment [1] was 501 to 1000 nM; in experiment [2], above 1000 nM. In the same order, the values of `COc1cc([C@@H](CN2CCC2)Nc2nnnc3c(C(N)=O)cccc23)ccc1Cl` [Compound 10, (S)-4-((2-(azetidin-1-yl)-1-(4-chloro-3-methoxyphenyl)ethyl)amino)-benzo[d][1,2,3]triazine-8-carboxamide] are below 25 nM and 101 to 500 nM. In the case of `COc1cc([C@@H](CN(C)C)Nc2nnnc3c(C(N)=O)cccc23)ccc1Cl` [Compound 11, (S)-4-((1-(4-chloro-3-methoxyphenyl)-2-(dimethylamino)ethyl)amino)-benzo[d][1,2,3]triazine-8-carboxamide], the IC50 lay in the range of 25 to 100 nM in experiment [1] and 101 to 500 nM in experiment [2]. As to `NC(=O)c1cccc2c(N[C@H](CN3CCC3)c3ccc(F)c(C(F)(F)F)c3)nnnc12` [Compound 12, (S)-4-((2-(azetidin-1-yl)-1-(4-fluoro-3-(trifluoromethyl)phenyl)ethyl)amino)benzo[d][1,2,3]triazine-8-carboxamide], the IC50 in experiment [1] and in experiment [2] was below 25 nM throughout.

As for `CN(C)C[C@@H](Nc1nnnc2c(C(N)=O)cccc12)c1ccc(Cl)c(C(F)(F)F)c1` [Compound 13, (S)-4-((1-(4-chloro-3-(trifluoromethyl)phenyl)-2-(dimethylamino)ethyl)amino)benzo-[d][1,2,3]triazine-8-carboxamide], the IC50 in experiment [1] and in experiment [2] was below 25 nM throughout. Turning to `NC(=O)c1cccc2c(N[C@H](CN3CCC3)c3ccc(Cl)c(C(F)(F)F)c3)nnnc12` [Compound 14, (S)-4-((2-(azetidin-1-yl)-1-(4-chloro-3-(trifluoromethyl)phenyl)ethyl)amino)benzo[d][1,2,3]triazine-8-carboxamide], the IC50 in experiment [1] and in experiment [2] was below 25 nM in each case. For `CN(C)C[C@@H](Nc1nnnc2c(C(N)=O)cccc12)c1ccc(Cl)c(Cl)c1` [Compound 15, (S)-4-((1-(3,4-dichlorophenyl)-2-(dimethylamino)ethyl)amino)benzo[d][1,2,3]triazine-8-carboxamide], the IC50 in experiment [1] and in experiment [2] was below 25 nM throughout.

Regarding `NC(=O)c1cccc2c(N[C@H](CN3CCC3)c3ccc(Cl)c(Cl)c3)nnnc12` [Compound 16, (S)-4-((2-(azetidin-1-yl)-1-(3,4-dichlorophenyl)ethyl)amino)benzo[d][1,2,3]triazine-8-carboxamide], the IC50 in experiment [1] and in experiment [2] was below 25 nM throughout.

As for `CN(C)C[C@@H](Nc1nnnc2c(C(N)=O)cccc12)c1ccc(Cl)c(C#N)c1` [Compound 17, (S)-4-((1-(4-chloro-3-cyanophenyl)-2-(dimethylamino)ethyl)amino)-benzo[d][1,2,3]triazine-8-carboxamide], the values for the IC50 in experiment [1] and in experiment [2] were 25 to 100 nM and 101 to 500 nM, respectively.

For the molecule `N#Cc1cc([C@@H](CN2CCC2)Nc2nnnc3c(C(N)=O)cccc23)ccc1Cl` [Compound 18, (S)-4-((2-(azetidin-1-yl)-1-(4-chloro-3-cyanophenyl)ethyl)amino)benzo[d][1,2,3]triazine-8-carboxamide], the IC50 in experiment [1] is below 25 nM; in experiment [2] it was 101 to 500 nM. In the same order, the values of `NC(=O)c1cncc2c(N[C@@H](CN3CCC3)c3ccc(Cl)c(C(F)(F)F)c3)ncnc12` [Compound 19, (R)-4-((2-(azetidin-1-yl)-1-(4-chloro-3-(trifluoromethyl)phenyl)ethyl)amino)pyrido[4,3-d]pyrimidine-8-carboxamide] are above 1000 nM and above 1000 nM. As for `NC(=O)c1cncc2c(N[C@H](CN3CCC3)c3ccc(Cl)c(C(F)(F)F)c3)ncnc12` [Compound 20, (S)-4-((2-(azetidin-1-yl)-1-(4-chloro-3-(trifluoromethyl)phenyl)ethyl)amino)pyrido[4,3-d]pyrimidine-8-carboxamide], the half-maximal inhibitory concentration (IC50) in experiment [1] is below 25 nM; in experiment [2] it was 25 to 100 nM. In the same order, the values of `NC(=O)c1cccc2c(NC3CNCCC3c3cccc(C(F)(F)F)c3)nnnc12` (stereo not drawn) [Compound 21, 4-((4-(3-(trifluoromethyl)phenyl)piperidin-3-yl)amino)benzo[d][1,2,3]triazine-8-carboxamide] are below 25 nM and below 25 nM.

In the case of `CCNC[C@@H](Nc1ncnc2c(C(N)=O)ccnc12)c1ccc(F)c(Br)c1` [Compound 30, 4-[(S)-1-(3-Bromo-4-fluoro-phenyl)-2-ethylamino-ethylamino]-pyrido[3,2-d]pyrimidine-8-carboxylic Acid Amide], the IC50 in experiment [2] lay in the range of 25 to 100 nM. The same measure, in the same setting: the value for `CN(C)C[C@@H](Nc1ncnc2c(C(N)=O)ccnc12)c1ccc(Cl)c(F)c1` [Compound 53, 4-[(S)-1-(4-Chloro-3-fluoro-phenyl)-2-dimethylamino-ethylamino]-pyrido[3,2-d]pyrimidine-8-carboxylic Acid Amide] was 25 to 100 nM; that for `CCNC[C@@H](Nc1ncnc2c(C(N)=O)ccnc12)c1ccc(F)c(Cl)c1` [Compound 61, 4-[(S)-1-(3-Chloro-4-fluoro-phenyl)-2-ethylamino-ethylamino]-pyrido[3,2-d]pyrimidine-8-carboxylic Acid Amide] was 25 to 100 nM.

The values above are taken from patent US9981925B2, “Substituted benzo[d][1,2,3]triazines as p70S6K inhibitors” (Merck Patent GmbH, priority 2012, dated 2018).
